The values that follow are results of earlier work, collected in patent publication US20110105600A1, “SYNERGISTIC COMPOSITION OF (-)-HYDROXYCITRIC ACID WITH MONOTERPENE AND A METHOD TO ENHANCE SATIETY” (Glykon Technologies Group, LLC, priority 2009, published 2011).

For series [1] the following is noted: humans; dosage related to total body surface area.
For series [2] the following is noted: 40 oz of Mediterranean-style lemonade containing 596 mg d-limonene.
Assay in series [3]: not given
This is another data set of the same source.

For series [4] the following is noted: single large oral dose or two divided oral doses; animals fed a high-sugar diet.
The conditions of series [5]: end of eight weeks; 2,800 mg/HCA per day in capsules.

With `C=C(C)[C@@H]1CC=C(CO)CC1` [perillyl alcohol], the maximum tolerated dose in series [1] is recorded as 8400 mg/m^2 per day.

For the compound `CC(C)=CCC/C(C)=C/CO` [geraniol], the “acute oral LD50” value in the series on rat was 3,600 mg/kg body weight.

With `CC(C)=CCC/C(C)=C\CO` [nerol], in the series on rat, the “acute oral LD50” value is 4,500 mg/kg body weight.

`C=C(C)[C@H]1CC=C(C)CC1` [d-limonene]: the “duration of slight fatigue and eructation” value (oral dose of 100 mg/kg) is recorded as “four”. Further, the “duration of mild satiety” value (oral dose of 100 mg/kg (bolus of 7 grams for a 70 kg human)) is 10 h. The “time to maximal blood concentrations of perillyl alcohol” value in series [2] is “one”.

Turning to `O=C(O)CC(O)(C(=O)O)C(O)C(=O)O` (single isomer, unassigned; (-)) [HCA, (−)-hydroxycitric acid], the “decrease in food intake” value in series [3] (900 mg HCA dissolved in 100 ml tomato juice, 2-week period) is 15-30%. Besides, the reduction in appetite in series [3] (900 mg/day, two weeks) is 15-30%. Moreover, the weight loss result in series [3] (2-week period) is “no significant weight loss”. For the same compound, the “reduction in food consumption” value in series [4] was not below 10%. Besides, the decrease in appetite entry in series [5] is listed as “approximately 15.6%”.
